Values joined by “and” are separate entries in the source; they are usually repeats but may differ in a detail not shown here. Equal entries are not always repeated.
Assays:
Lactobacillus fermentum = test: Comparative efficacy analysis Virginiamycin vs. Penicillin G Procaine, growth in MRS broth, 24 well plate; format: cell-based
Text: The most commonly found microorganism in fuel ethanol producing plants is the Lactobacillus fermentum bacterium and is considered as an “industry normal” bacterium. This example compares the use of a Bactenix® line of products, Penicillin G Procaine-antibiotic versus Virginiamycin-antibiotic to control “industry normal” Lactobacillus fermentum bacterium. This trial uses an alcohol water mixture to assure total dissolving of antibiotics. This assures that the correct concentrations of antibiotics are going into the test wells and thereby preventing under dosing during the trial. All bacteria tested were industry specific isolates that were obtained from actual corn mash samples from fermentation alcohol production plants. The trial was set up as follows: • 1. Dissolve 0.1 g of each of the antibiotics in 1 ml water and then add 5 ml of ethanol, vortex and bring up to 10 ml with sterile water to from a suspension. • 2. Dilute the previous suspension 1:10 with sterile water. This gives a one mg/ml concentration. • 3. Filter the suspension by running through a 0.2 μm syringe filter. • 4. Add four μl broth in a centrifuge then add antibiotics to MRS (DeMan, Rogosa and Sharpe) broth at the concentrations required for the test. • 5. Take four μl of a fresh 24-hour culture of the target organisms and add to the corresponding empty wells in a pre-labeled 24 well tissue culture plate. • 6. Pipette one ml of the appropriate antibiotic media to each well of the plate. • 7. Incubate at 33° C. for 24 hours. • 8. Read plates for bacterial growth and re-incubate the plates at 33° C. • 9. After 48 hours read and report the final results.

contaminating bacteria = test: Alcohol production plant trial, fermentor drop data (50 m/g/y dry grind, corn); format: cell-based; settings: 0.5 ppm
Experimental: This trial was conducted at a 50 million gallon per year (m/g/y) dry grind fuel alcohol production facility utilizing corn as a fermentation substrate. Batch yeast propagation and fermentation process were utilized. Antimicrobials were added to the fermentor during the fill cycle at approximately 30% fill.
No other changes were made to the process or chemical additions that would influence the fermentation kinetics monitored during 3 sets of fermentor batches listed below. The fermentation data was accumulated at the end (drop) of the fermentation process for each of the fermentors. Fermentation kinetics was measured for three batch cycles including:
Set 1—“Pre Penicillin G Procaine trial”-10 fermentor batches using a level of 0.5 ppm Virginiamycin. See results in Table 2.
Set 2—“Penicillin G Procaine trial”-10 fermentor batches using a level of 0.5 ppm of Penicillin G Procaine. See results in Table 3.
Set 3—“Post Penicillin G Procaine trial”-10 fermentor batches using a level of 0.5 ppm of Virginiamycin. See results in Table 4.

[1] = Set 1 'Pre Penicillin G Procaine trial', 10 Batch average
[2] = Set 1 'Pre Penicillin G Procaine trial', drop data, single fermentor batch
[3] = Set 3 'Post Penicillin G Procaine trial', 10 Batch average
[4] = Set 3 'Post Penicillin G Procaine trial', drop data, single fermentor batch

Q: What does the source list for Virginiamycin?
A: inhibition of growth of the 'industry normal' bacteria (Lactobacillus fermentum; at 0.5 ppm, as per table 1): did not seem to inhibit the growth; effectiveness against Lactobacillus fermentum (Lactobacillus fermentum; dosage of above 1 ppm, compared with Penicillin G Procaine): comparable effectiveness as Penicillin G Procaine; concentration from which effective against Lactobacillus fermentum (Lactobacillus fermentum; industry standard L. fermentum isolate, MRS broth, 33° C., read at 24 and 48 hours): > 0.5 ppm; Acetic % (contaminating bacteria; [1]): 0.04%; EtOH v/v % (contaminating bacteria; [1]): 15.48 v/v %; Glucose % (contaminating bacteria; [1]): 0.29%; Lactic % (contaminating bacteria; [1]): 0.64%; Acetic % (contaminating bacteria; [2]): 0.02% and 0.04% and 0.13% and 0.03%; Glucose % (contaminating bacteria; [2]): 0.36% and 0.27% and 0.26% and 0.31% and 0.29% and 0.3% and 0.16%; Lactic % (contaminating bacteria; [2]): 0.59% and 0.71% and 0.85% and 0.56% and 0.79% and 0.584% and 0.41%; Acetic % (contaminating bacteria; [3]): 0.04%; EtOH v/v % (contaminating bacteria; [3]): 15.49 v/v %; Glucose % (contaminating bacteria; [3]): 0.30%; Lactic % (contaminating bacteria; [3]): 0.57%; Acetic % (contaminating bacteria; [4]): 0.05% and 0.04% and 0.03%; Glucose % (contaminating bacteria; [4]): 0.26% and 0.35% and 0.29% and 0.32% and 0.30% and 0.33% and 0.25%

Reference: patent US8828696B2, “Use of Penicillin G Procaine as a selective antimicrobial agent in the production of alcohol by fermentation” (Lallemand Specialites, Inc, priority 2008, dated 2014)
